Test results reported in patent US20030044797A1, “Detection of CYP2D6 polymorphisms” (priority 2000, published 2003).

Tested on: CYP2D6 enzyme
Assay: debrisoquine metabolic ratio (MR) phenotyping of study participants, correlated with CYP2D6 5′ flanking region haplotypes
Type: in vivo, human
Procedure: The study was performed in accordance with the principles stated in the Declaration of Helsinki as reviewed in Tokyo 1975 and Venice 1983, Hong Kong 1989 and Somerset West 1996. Subjects were preferably not related to each other. Based on questioning, individuals having one of the following were excluded: a medical condition judged to influence liver function or requiring pharmacological treatment; any on-going disease; intake of any drug, except oral contraceptives, during one week prior to the study; breast-feeding or pregnancy. No physical examination was performed. For these experiments, a single oral dose of 10 mg debrisoquine (Declinax, Hoffman-LaRoche) was taken in the evening before bed-time. The bladder was emptied before drug intake. All urine was then collected overnight (about 8 hours) A single blood sample was collected 3 hours after drug intake.
White blood cells isolated from a blood sample drawn from the brachial vein serve as the source of the genomic DNA for the analyses. The DNA was extracted by guanidine thiocyanate method or QlAamp Blood Kit (QIAGEN, Venlo, The Netherlands). The genes included in the study were amplified by PCR and the DNA sequences were determined by the technology most suitable for the specific fragment. […] Case Report Forms were designed and used for clinical and genetic data collection. Data was entered and stored in a relational database at Gemini Genomics AB, Uppsala. To secure consistency between the Case Report Forms and the database, data was checked either by double data entry or proofreading. After a Clean File was declared the database was protected against changes. By using the program Stat/Transfer™ the database was transferred to SAS data sets. The SAS™ system was used for tabulations and statistical evaluations. Genotypes and haplotypes were correlated against the metabolic ratio.
This analysis was performed using software based on maximum likelihood methodology and using the EM algorithm of Excoffier et al. (1995), Mol Biol Evol. 12:921-927. […] From the haplotype information two different kinds of variables were created: one variable was formed as a haplotype combination variable (HTYPE). This variable has the value H1/H2 when the subject has haplotypes 1 and 2, etc. Variables H1, H2, H3 and H4 are haplotype annotations that denote the number of copies of that particular haplotype for the subject, e.g., for a subject with haplotype H1/H2 the variables H1, H2, H3 and H4 will be 1, 1, 0 and 0, respectively. Each of these variables can thus take on the values 0, 1 or 2. Only the four most frequent haplotypes were considered when those variables were formed.

- MR-range (min-max) (HTYPE H1/H1): 0.03-110
- MR (Debr), predicted metabolic ratio (HTYPE H1/H1, 89% (49/55) in MR-range): <0.8
- MR-range (min-max) (HTYPE H1/H2): 0.06-1.04
- MR (Debr), predicted metabolic ratio (HTYPE H1/H2, 81% (52/64) in MR-range): <0.4
- MR-range (min-max) (HTYPE H1/H3): 0.08-2.40
- MR (Debr), predicted metabolic ratio (HTYPE H1/H3, 74% (14/19) in MR-range): 0.4-2.0
- MR-range (min-max) (HTYPE H1/H4): 0.18-143
- MR (Debr), predicted metabolic ratio (HTYPE H1/H4, 74% (20/27) in MR-range): 0.4-7.0
- MR-range (min-max) (HTYPE H2/H2): 0.13-1.44
- MR (Debr), predicted metabolic ratio (HTYPE H2/H2, 89% (17/19) in MR-range): <0.8
- MR-range (min-max) (HTYPE H2/H3): 0.13-2.29
- MR (Debr), predicted metabolic ratio (HTYPE H2/H3, 86% (6/7) in MR-range): 0.2-7.0
- MR-range (min-max) (HTYPE H2/H4): 0.33-3.70
- MR (Debr), predicted metabolic ratio (HTYPE H2/H4, 82% (14/17) in MR-range): 0.4-2.0
- MR-range (min-max) (HTYPE H3/H3): 0.85-5.17
- MR (Debr), predicted metabolic ratio (HTYPE H3/H3, 100% (3/3) in MR-range): 0.8-7.0
- MR-range (min-max) (HTYPE H3/H4): 1.46-6.54
- MR (Debr), predicted metabolic ratio (HTYPE H3/H4, 100% (5/5) in MR-range): 0.8-7.0
- MR-range (min-max) (HTYPE H4/H4): 26.3-236
- MR (Debr), predicted metabolic ratio (HTYPE H4/H4, 100% (16/16) in MR-range): >12.6
- mr50 (metabolic ratio of the 50th percentile) (haplotype H1/H1, n = 53, single oral dose 10 mg debrisoquine): mr50 = 0.22
- mr50 (metabolic ratio of the 50th percentile) (haplotype H1/—, n = 108): mr50 = 0.375
- mr50 (metabolic ratio of the 50th percentile) (haplotype H2/H2, n = 19): mr50 = 0.3
- mr50 (metabolic ratio of the 50th percentile) (haplotype H2/—, n = 88): mr50 = 0.335
- mr50 (metabolic ratio of the 50th percentile) (haplotype H3/H3, n = 3): mr50 = 2.08
- mr50 (metabolic ratio of the 50th percentile) (haplotype H3/—, n = 31): mr50 = 0.64
- mr50 (metabolic ratio of the 50th percentile) (haplotype H4/H4, n = 16): mr50 = 88
- mr50 (metabolic ratio of the 50th percentile) (haplotype H4/—, n = 49): mr50 = 0.86
- mr50 (metabolic ratio of the 50th percentile) (no H1 copy (—/—), n = 71): mr50 = 0.87
- mr50 (metabolic ratio of the 50th percentile) (no H2 copy (—/—), n = 125): mr50 = 0.56
- mr50 (metabolic ratio of the 50th percentile) (no H3 copy (—/—), n = 198): mr50 = 0.34
- mr50 (metabolic ratio of the 50th percentile) (no H4 copy (—/—), n = 167): mr50 = 0.27
Compound: N=C(N)N1CCc2ccccc2C1 [debrisoquine]
